How the values were obtained:
[1] = system: Dirofilaria immitis microfilariae; experiment: In vitro assay 3: Dirofilaria immitis microfilariae (DIROIM L1), motility; conditions: 72 h, read-out: EC50 (reduction of motility), 72 h incubation
[2] = system: Dirofilaria immitis third-stage larvae; experiment: In vitro assay 4: Dirofilaria immitis (DIROIM L4), motility; conditions: 72 h, read-out: EC50 (reduction of motility)
[3] = system: Cooperia curticei; conditions: for mortality at 4 ppm / mortality at 20 ppm: Cooperia curticei, 120 h, read-out: activity (larval mortality)
Experimental: In Vitro Assay 6: Cooperia curticei (COOPCU L3)
Solvent: dimethyl sulfoxide
Approximately 40 nematode larvae (Cooperia curticei) are transferred into a test tube containing the compound solution.
After 5 days percentage of larval mortality is recorded. 100% efficacy means all larvae are killed; 0% efficacy means no larvae are killed.

[4] = target: C. elegans Slo-1a (Caenorhabditis elegans, UniProt Q95V25); conditions: pE50 (negative decadic logarithm of EC50), CHO cells expressing C. elegans Slo-1a, voltage sensitive dye
[5] = system: Nippostrongylus brasiliensis; experiment: In vitro assay 2: Nippostrongylus brasiliensis (NIPOBR), acetylcholine esterase readout; conditions: read-out: activity (reduction of AChE compared to negative control); for inhibition at 1 µg/mL: 1 μg/ml; for inhibition at 10 µg/mL: 10 μg/ml
Experimental: In Vitro Assay 2: Nippostrongylus brasiliensis (NIPOBR)
Adult Nippostrongylus brasiliensis were washed with saline buffer containing 100 U/ml penicillin, 0.1 mg/ml streptomycin and 2.5 μg/ml amphotericin B. Test compounds were dissolved in DMSO and worms were incubated in medium in a final concentration of 10 μg/ml (10 ppm) respectively 1 μg/ml (1 ppm). An aliquot of the medium was used to determine the acetylcholine esterase activity in comparison to a negative control. The principle of measuring acetylcholine esterase as readout for anthelmintic activity was described in Rapson et al (1986) and Rapson et al (1987).

[6] = system: Haemonchus contortus; conditions: 120 h, read-out: activity (larval mortality)
Experimental: In Vitro Assay 7: Haemonchus contortus (HAEMCO L3)
Solvent: dimethyl sulfoxide
Approximately 40 larvae of the red stomach worm (Haemonchus contortus) are transferred into a test tube containing compound solution.
After 5 days the percentage of larval mortality is recorded. 100% efficacy means all larvae are killed, 0% efficacy means no larvae are killed.

Chain of C. elegans Slo-1a (Q95V25 whole entry): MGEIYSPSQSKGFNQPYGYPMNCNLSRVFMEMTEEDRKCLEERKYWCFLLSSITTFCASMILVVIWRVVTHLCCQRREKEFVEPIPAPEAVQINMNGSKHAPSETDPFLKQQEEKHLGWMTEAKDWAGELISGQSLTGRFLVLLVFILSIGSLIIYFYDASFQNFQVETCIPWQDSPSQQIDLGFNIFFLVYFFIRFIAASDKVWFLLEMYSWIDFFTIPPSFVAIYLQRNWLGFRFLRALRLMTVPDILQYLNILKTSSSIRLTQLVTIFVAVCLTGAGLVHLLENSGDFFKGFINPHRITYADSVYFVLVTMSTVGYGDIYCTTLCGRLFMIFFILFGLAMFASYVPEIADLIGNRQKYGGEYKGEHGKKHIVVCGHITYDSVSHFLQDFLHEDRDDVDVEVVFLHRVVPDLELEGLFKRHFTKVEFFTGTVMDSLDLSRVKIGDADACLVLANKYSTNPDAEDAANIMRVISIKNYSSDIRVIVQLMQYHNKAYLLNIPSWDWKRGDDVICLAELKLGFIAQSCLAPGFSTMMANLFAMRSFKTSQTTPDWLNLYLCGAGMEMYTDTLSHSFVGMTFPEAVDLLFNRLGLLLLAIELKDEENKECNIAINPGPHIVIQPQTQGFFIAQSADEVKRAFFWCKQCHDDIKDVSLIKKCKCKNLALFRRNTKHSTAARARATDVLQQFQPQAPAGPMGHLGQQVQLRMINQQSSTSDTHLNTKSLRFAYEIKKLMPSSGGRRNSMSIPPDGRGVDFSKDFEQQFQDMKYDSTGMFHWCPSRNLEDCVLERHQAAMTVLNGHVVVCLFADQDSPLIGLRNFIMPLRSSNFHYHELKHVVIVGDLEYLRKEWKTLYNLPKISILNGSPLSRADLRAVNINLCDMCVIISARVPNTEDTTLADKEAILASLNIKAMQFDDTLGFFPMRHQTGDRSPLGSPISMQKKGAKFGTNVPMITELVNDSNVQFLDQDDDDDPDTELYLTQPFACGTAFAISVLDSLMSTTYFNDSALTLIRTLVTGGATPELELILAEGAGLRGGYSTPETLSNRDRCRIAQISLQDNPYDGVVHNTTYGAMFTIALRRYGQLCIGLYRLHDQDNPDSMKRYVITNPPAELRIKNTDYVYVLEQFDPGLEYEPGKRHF

| SMILES | EC50 [1] [µg/mL] | EC50 [2] [µg/mL] | mortality at 4 ppm [3] [%] | mortality at 20 ppm [3] [%] | EC50 [4] [nM] | inhibition at 1 µg/mL [5] [%] | inhibition at 10 µg/mL [5] [%] | mortality at 20 ppm [6] [%] | activity (larval mortality) ([3]; 0.8 ppm, after 5 days) [%] | mortality at 4 ppm [6] [%] |
| --- | --- | --- | --- | --- | --- | --- | --- | --- | --- | --- |
| O=C(N[C@H]1CCOc2ccccc21)c1cnc2c(-c3ccc(F)c(Cl)c3)cccc2c1N1CCC(O)C1 (mixture of isomers) [Example 196] | < 0.1 | < 0.1 | 90 | 100 | 3.16 to 31.6 |  |  |  |  |  |
| Cc1cc(C)cc(-c2cccc3c(Cl)c(C(=O)N[C@H]4CCCc5ccccc54)cnc23)c1 [Example 1, 4-chloro-8-(3,5-dimethylphenyl)-N-[(1S)-1,2,3,4-tetrahydronaphthalen-1-yl]quinoline-3-carboxamide] | < 0.1 | < 1 |  |  | 31.6 to 316 |  |  |  |  |  |
| O=C(N[C@H]1CCCc2ccccc21)c1cnc2c(-c3cc(Cl)cc(Cl)c3)cccc2c1Cl [Example 2] | < 10 | < 1 |  |  | 3.16 to 31.6 |  |  |  |  |  |
| O=C(N[C@H]1CCOc2ccccc21)c1cnc2c(-c3cc(Cl)c(F)c(Cl)c3)cc(F)cc2c1N1CCOCC1 [Example 43] | < 0.1 | < 0.1 |  |  | < 3.16 | > 80 | > 80 |  |  |  |
| CN(C)c1c(C(=O)N[C@H]2CCOc3ccccc32)cnc2c(-c3ncccc3F)cccc12 [Example 62] | < 1 | < 0.1 |  |  | 31.6 to 316 |  | > 80 |  |  |  |
| COc1cc(-c2cccc3c(N(C)C)c(C(=O)N[C@H]4CCOc5ccccc54)cnc23)ccn1 [Example 64] | < 0.1 | < 0.1 |  |  | 3.16 to 31.6 |  | > 80 |  |  |  |
| O=C(N[C@H]1CCc2ccccc21)c1cnc2c(-c3cc(Cl)cc(Cl)c3)cccc2c1N1CC(F)C1 [Example 119] | < 0.1 | < 0.1 |  |  | 3.16 to 31.6 | > 80 | > 80 |  |  |  |
| CN(C)c1c(C(=O)N[C@H]2CCOc3ccccc32)cnc2c(-c3ccc(F)cc3Cl)cc(F)cc12 [Example 180] | < 0.1 |  |  |  | 3.16 to 31.6 |  |  | 80 |  |  |
| O=C(N[C@H]1CCOc2ccccc21)c1cnc2c(-c3ccc(F)c(Cl)c3)cccc2c1N1CCOCC1 [Example 190] |  |  |  |  |  |  |  |  | 80 |  |
| O=C(N[C@H]1CCOc2ccccc21)c1cnc2c(-c3cccc(F)c3Cl)cccc2c1N1CCOCC1 [Example 238] | < 0.1 | < 0.1 |  | 80 | < 3.16 | > 80 |  |  |  |  |
| O=C(N[C@H]1CCOc2ccccc21)c1cnc2c(-c3cc(Cl)cc(Cl)c3)cccc2c1N1CCC[C@H]1C(=O)O [Example 261, 1-{8-(3,5-dichlorophenyl)-3-[(4S)-3,4-dihydro-2H-chromen-4-ylcarbamoyl]quinolin-4-yl}-L-proline] | < 0.1 | < 0.1 |  |  |  | > 80 |  |  |  |  |
| O=C(O)CNc1c(C(=O)N[C@H]2CCOc3ccccc32)cnc2c(-c3cc(Cl)cc(Cl)c3)cccc12 [Example 276] | < 0.1 |  |  | 90 | 31.6 to 316 | > 80 |  | 80 |  |  |
| CN(C)c1c(C(=O)N[C@H]2CCOc3ccccc32)cnc2c(-c3c(F)cccc3F)cccc12 [Example 277] | < 0.1 | < 0.1 |  |  | < 3.16 | > 80 |  |  |  |  |
| O=C(N[C@H]1CCOc2ccccc21)c1cnc2c(-c3c(F)cccc3F)c(F)ccc2c1N1CCOCC1 [Example 278] | < 0.1 | < 0.1 |  |  | < 3.16 |  |  |  |  |  |
| O=C(N[C@H]1CCOc2ccccc21)c1cnc2c(-c3cc(Cl)cc(Cl)c3)cccc2c1N1CC[C@@H](O)C1 [Example 283] | < 0.1 | < 0.1 |  |  | < 3.16 | > 80 |  |  |  |  |
| C[C@H]1CN(c2c(C(=O)N[C@H]3CCOc4ccccc43)cnc3c(-c4cc(Cl)cc(Cl)c4)cccc23)CCO1 [Example 290] | < 0.1 | < 0.1 |  |  | < 3.16 | > 80 |  |  |  |  |
| COCCNc1c(C(=O)N[C@H]2CCc3ccccc32)cnc2c(-c3cc(Cl)cc(Cl)c3)cccc12 [Example 298] |  |  |  | 80 | < 3.16 |  |  |  |  |  |
| O=C(N[C@H]1CCOc2ccccc21)c1cnc2c(-c3cccc(Cl)c3Cl)c(C(F)(F)F)ccc2c1N1CCOCC1 [Example 314] | < 0.1 | < 0.1 |  | 90 | < 3.16 | > 80 |  |  |  |  |
| N#CCc1c(C(=O)N[C@H]2CCOc3ccccc32)cnc2c(-c3cc(Cl)cc(Cl)c3)cccc12 [Example 355, 4-(cyanomethyl)-8-(3,5-dichlorophenyl)-N-[(4S)-3,4-dihydro-2H-chromen-4-yl]quinoline-3-carboxamide] | < 0.1 | < 0.1 |  |  | < 3.16 | > 80 |  |  |  |  |
| NC(=O)Cc1c(C(=O)N[C@H]2CCOc3ccccc32)cnc2c(-c3cc(Cl)cc(Cl)c3)cccc12 [Example 360, 4-(2-amino-2-oxoethyl)-8-(3,5-dichlorophenyl)-N-[(4S)-3,4-dihydro-2H-chromen-4-yl]quinoline-3-carboxamide] | < 0.1 | < 0.1 |  |  | 3.16 to 31.6 | > 80 |  |  |  |  |
| N#Cc1c(C(=O)N[C@H]2CCOc3ccccc32)cnc2c(-c3cc(Cl)cc(Cl)c3)cccc12 [Example 362, 4-cyano-8-(3,5-dichlorophenyl)-N-[(4S)-3,4-dihydro-2H-chromen-4-yl] quinoline-3-carboxamide] | < 0.1 | < 0.1 |  |  |  | > 80 | > 80 |  |  |  |
| O=C(N[C@H]1CCOc2ccccc21)c1cnc2c(-c3cc(Cl)sc3Cl)cccc2c1N1CCOCC1 [Example 441] | < 0.1 | < 0.1 |  |  | < 3.16 | > 80 |  |  |  |  |
| O=C(N[C@H]1CCOc2ccccc21)c1cnc2c(-c3sccc3Cl)cccc2c1N1CCOCC1 [Example 442] | < 0.1 | < 0.1 |  |  | < 3.16 |  |  |  |  |  |
| Cc1ccc(C)c(-c2cccc3c(N(C)C)c(C(=O)N[C@H]4CCOc5ccccc54)cnc23)c1 [Example 471] | < 0.1 |  |  | 80 | 3.16 to 31.6 | > 80 |  |  |  | 80 |
| C=Cc1c(C(=O)N[C@H]2CCOc3ccccc32)cnc2c(-c3cc(Cl)cc(Cl)c3)cccc12 [Example 478] | < 0.1 | < 0.1 |  |  | < 3.16 | > 80 |  |  |  |  |
| CN(C)c1c(C(=O)NC2CSc3ccccc32)cnc2c(-c3cc(Cl)cc(Cl)c3)cccc12 (centres unmarked) [Example 493] | < 0.1 | < 0.1 |  |  | 3.16 to 31.6 |  |  |  |  |  |
| CCc1c(C(=O)N[C@H]2CCOc3ccccc32)cnc2c(-c3cccc(OC(F)(F)F)c3)cccc12 [Example 570] | < 0.1 | < 0.1 |  |  | 3.16 to 31.6 | > 80 |  |  |  |  |
| CN(C)c1c(C(=O)N[C@H]2CCOc3ccccc32)cnc2c(-c3cc(C#N)cc(Cl)c3Cl)cccc12 [Example 624] | < 0.1 |  | 80 | 100 | < 3.16 | > 80 |  | 80 |  |  |
| CC(=O)N(C)Cc1c(C(=O)N[C@H]2CCOc3ccccc32)cnc2c(-c3cc(Cl)cc(Cl)c3)cccc12 [Example 631] | < 10 |  | 100 | 100 | < 3.16 | > 80 |  | 100 |  | 100 |
